Experimental data: US8163793B2, “Proline derivatives” (Hoffman-La Roche Inc., priority 2009, dated 2012)

Columns and labels:
Cat L = Cat L (UniProt P07711); test: Cathepsin enzyme inhibition assay (fluorogenic peptide substrate Z-Val-Val-Arg-AMC), Cathepsin L; assay type: biochemical, human and mouse; conditions: enzyme 1 nM, substrate 20 μM, pH 6.5; read-out: CatL IC50
Outline: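 Fluorogenic cleavage of Z-Val-Val-Arg-AMC (20 μM) by 1 nM Cat L was monitored at ex 360/em 465 nm for 20 min, the linear phase. The buffer was 100 mM potassium phosphate pH 6.5 with 5 mM EDTA and DTT. IC50 values were derived by standard methods, in μM.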

Cathepsin S = Cathepsin S (UniProt P25774); test: Cathepsin enzyme inhibition assay (fluorogenic peptide substrate Z-Val-Val-Arg-AMC), Cathepsin S; assay type: biochemical, human and mouse; conditions: enzyme 1 nM, substrate 20 μM, pH 6.5; read-out: CatS IC50
Outline: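 Compounds were combined with 1 nM human or mouse enzyme, and substrate then started the reaction. The buffer was potassium phosphate (100 mM, pH 6.5) containing EDTA-Na 5 mM, Triton X-100 0.001% and […] 5 mM.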

| SMILES | IC50 (Cat L) | IC50 (Cathepsin S) |
| --- | --- | --- |
| Cc1cc(N2C[C@H](S(=O)(=O)c3ccc(F)cc3C(F)(F)F)C[C@H]2C(=O)NC2(C#N)CC2)n(C2CCOCC2)n1 [Example 396, (2S,4R)-4-(4-Fluoro-2-trifluoromethyl-benzenesulfonyl)-1-[5-methyl-2-(tetrahydro-pyran-4-yl)-2H-pyrazol-3-yl]-pyrrolidine-2-carboxylic acid (1-cyano-cyclopropyl)-amide] | 57500 nM | 1.65 nM |
| N#CC1(NC(=O)[C@@H]2C[C@@H](S(=O)(=O)c3ccccc3C(F)(F)F)CN2c2cc(C3CCOCC3)nn2C2CCC2)CC1 [Example 397, (2S,4R)-1-[2-Cyclobutyl-5-(tetrahydro-pyran-4-yl)-2H-pyrazol-3-yl]-4-(2-trifluoromethyl-benzenesulfonyl)-pyrrolidine-2-carboxylic acid (1-cyano-cyclopropyl)-amide] | 7200 nM | 0.435 nM |
| N#CC1(NC(=O)[C@@H]2C[C@@H](S(=O)(=O)c3ccccc3C(F)(F)F)CN2c2cc(C3CC3)nn2C2CCC2)CC1 [Example 398, (2S,4R)-1-(2-Cyclobutyl-5-cyclopropyl-2H-pyrazol-3-yl)-4-(2-trifluoromethyl-benzenesulfonyl)-pyrrolidine-2-carboxylic acid (1-cyano-cyclopropyl)-amide] | 18800 nM | 0.555 nM |
| N#CC1(NC(=O)[C@@H]2C[C@@H](S(=O)(=O)c3ccccc3Cl)CN2c2nnc(C(F)(F)F)s2)CC1 [Example 399] | > 25000 nM | 0.98 nM |
| N#CC1(NC(=O)[C@@H]2C[C@@H](S(=O)(=O)c3ccccc3C(F)(F)F)CN2c2cc(C3CC3)n[nH]2)CC1 [Example 400, (2S,4R)-1-(5-Cyclopropyl-2H-pyrazol-3-yl)-4-(2-trifluoromethyl-benzenesulfonyl)-pyrrolidine-2-carboxylic acid (1-cyano-cyclopropyl)-amide] | ≥ 25000 nM | 3.3 nM |
| Cc1cc(N2C[C@H](S(=O)(=O)c3ccc(N4CCN(C)CC4)cc3Cl)C[C@H]2C(=O)NC2(C#N)CC2)n(C2CCC2)n1 [Example 401, (2S,4R)-4-[2-Chloro-4-(4-methyl-piperazin-1-yl)-benzenesulfonyl]-1-(2-cyclobutyl-5-methyl-2H-pyrazol-3-yl)-pyrrolidine-2-carboxylic acid (1-cyano-cyclopropyl)-amide] | 1080 nM | 0.46 nM |
| CS(=O)(=O)c1cccc(N2C[C@H](S(=O)(=O)c3ccccc3C(F)(F)F)C[C@H]2C(=O)NC2(C#N)CC2)c1 [Example 402, (2S,4R)-1-(3-Methanesulfonyl-phenyl)-4-(2-trifluoromethyl-benzenesulfonyl)-pyrrolidine-2-carboxylic acid (1-cyano-cyclopropyl)-amide] | ≥ 25000 nM | 1.4 nM |
| N#CC1(NC(=O)[C@@H]2C[C@@H](S(=O)(=O)c3ccccc3C(F)(F)F)CN2c2nc(Cl)ns2)CC1 [Example 405, (2S,4R)-1-(3-Chloro-[1,2,4]thiadiazol-5-yl)-4-(2-trifluoromethyl-benzenesulfonyl)-pyrrolidine-2-carboxylic acid (1-cyano-cyclopropyl)-amide] | ≥ 25000 nM | 0.935 nM |
| Cc1cc(N2C[C@H](S(=O)(=O)c3ccccc3C(F)(F)F)C[C@H]2C(=O)NC2(C#N)CC2)n(C2CCN(C(=O)OCc3ccccc3)CC2)n1 [Example 406, 4-{5-[(2S,4R)-2-(1-Cyano-cyclopropylcarbamoyl)-4-(2-trifluoromethyl-benzenesulfonyl)-pyrrolidin-1-yl]-3-methyl-pyrazol-1-yl}-piperidine-1-carboxylic acid Benzyl Ester] | ≥ 25000 nM | 4 nM |
| Cc1cc(N2C[C@H](S(=O)(=O)c3ccccc3C(F)(F)F)C[C@H]2C(=O)NC2(C#N)CC2)n(C2CCNCC2)n1 [Example 407, (2S,4R)-1-(5-Methyl-2-piperidin-4-yl-2H-pyrazol-3-yl)-4-(2-trifluoromethyl-benzenesulfonyl)-pyrrolidine-2-carboxylic acid (1-cyano-cyclopropyl)-amide] | ≥ 25000 nM | 38.5 nM |
| CS(=O)(=O)[C@@H]1C[C@@H](C(=O)NC2(C#N)CC2)N(C(=O)C2(c3ccc(Cl)cc3)CC2)C1 [Example 409, (2S,4R)-1-[1-(4-Chloro-phenyl)-cyclopropanecarbonyl]-4-methanesulfonyl-pyrrolidine-2-carboxylic acid (1-cyano-cyclopropyl)-amide] | ≥ 25000 nM | 2530 nM |
| N#CC1(NC(=O)[C@@H]2C[C@@H](S(=O)(=O)c3ccccc3Cl)CN2C(=O)c2n[nH]c3cc(Cl)ccc23)CC1 [Example 410, (2S,4R)-4-(2-Chloro-benzenesulfonyl)-1-(6-chloro-1H-indazole-3-carbonyl)-pyrrolidine-2-carboxylic acid (1-cyano-cyclopropyl)-amide] | 29700 nM | 4.8 nM |
| N#CC1(NC(=O)[C@@H]2C[C@@H](S(=O)(=O)c3ccccc3Cl)CN2C(=O)[C@H](O)c2ccc(Cl)cc2)CC1 [Example 411, (2S,4R)-4-(2-Chloro-benzenesulfonyl)-1-[(R)-2-(4-chloro-phenyl)-2-hydroxy-acetyl]-pyrrolidine-2-carboxylic acid (1-cyano-cyclopropyl)-amide] | 550 nM | 0.525 nM |
| CC(C)(C)OC(=O)N[C@@H](C(=O)N1C[C@H](S(=O)(=O)c2ccccc2Cl)C[C@H]1C(=O)NC1(C#N)CC1)c1ccc(Cl)cc1 [Example 412, [(R)-2-[(2S,4R)-4-(2-Chloro-benzenesulfonyl)-2-(1-cyano-cyclopropylcarbamoyl)-pyrrolidin-1-yl]-1-(4-chloro-phenyl)-2-oxo-ethyl]-carbamic Acid Tert-butyl ester] | 785 nM | 2.75 nM |
| Cc1csc(C2(C(=O)N3C[C@H](S(=O)(=O)c4ccccc4Cl)C[C@H]3C(=O)NC3(C#N)CC3)CC2)n1 [Example 413, (2S,4R)-4-(2-Chloro-benzenesulfonyl)-1-[1-(4-methyl-thiazol-2-yl)-cyclopropanecarbonyl]-pyrrolidine-2-carboxylic acid (1-cyano-cyclopropyl)-amide] | 1100 nM | 0.31 nM |
| N#CC1(NC(=O)[C@@H]2C[C@@H](S(=O)(=O)c3ccccc3Cl)CN2C(=O)Cc2ncc(Cl)cn2)CC1 [Example 414, (2S,4R)-4-(2-Chloro-benzenesulfonyl)-1-[2-(5-chloro-pyrimidin-2-yl)-acetyl]-pyrrolidine-2-carboxylic acid (1-cyano-cyclopropyl)-amide] | 5450 nM | 0.295 nM |
| Cc1cc(N2C[C@H](S(=O)(=O)c3ccc(N4CC(F)(F)C4)cc3C(F)(F)F)C[C@H]2C(=O)NC2(C#N)CC2)n(C2CCC2)n1 [Example 415, (2S,4R)-1-(2-Cyclobutyl-5-methyl-2H-pyrazol-3-yl)-4-[4-(3,3-difluoro-azetidin-1-yl)-2-trifluoromethyl-benzenesulfonyl]-pyrrolidine-2-carboxylic acid (1-cyano-cyclopropyl)-amide] | 11700 nM | 0.215 nM |
| Cc1cc(N2C[C@H](S(=O)(=O)c3ccc(-n4cccn4)cc3C(F)(F)F)C[C@H]2C(=O)NC2(C#N)CC2)n(C2CCC2)n1 [Example 416, (2S,4R)-1-(2-Cyclobutyl-5-methyl-2H-pyrazol-3-yl)-4-(4-pyrazol-1-yl-2-trifluoromethyl-benzenesulfonyl)-pyrrolidine-2-carboxylic acid (1-cyano-cyclopropyl)-amide] | 21400 nM | 0.338 nM |
| N#CC1(NC(=O)[C@@H]2C[C@@H](S(=O)(=O)c3ccccc3Cl)CN2C(=O)[C@H](N)c2ccc(Cl)cc2)CC1 [Example 417, (2S,4R)-1-[(R)-2-Amino-2-(4-chloro-phenyl)-acetyl]-4-(2-chloro-benzenesulfonyl)-pyrrolidine-2-carboxylic acid (1-cyano-cyclopropyl)-amide] | 55.5 nM | 2.45 nM |
| Cc1cc(N2C[C@H](S(=O)(=O)c3ccccc3Cl)C[C@H]2C(=O)NC2(C#N)CC2)n(Cc2ccc(Cl)cc2)n1 [Example 418, (2S,4R)-4-(2-Chloro-benzenesulfonyl)-1-[2-(4-chloro-benzyl)-5-methyl-2H-pyrazol-3-yl]-pyrrolidine-2-carboxylic acid (1-cyano-cyclopropyl)-amide] | 1620 nM | 4 nM |
| Cc1cc(N2C[C@H](S(=O)(=O)c3ccc(-c4ccncn4)cc3C(F)(F)F)C[C@H]2C(=O)NC2(C#N)CC2)n(C2CCC2)n1 [Example 419, (2S,4R)-1-(2-Cyclobutyl-5-methyl-2H-pyrazol-3-yl)-4-(4-pyrimidin-4-yl-2-trifluoromethyl-benzenesulfonyl)-pyrrolidine-2-carboxylic acid (1-cyano-cyclopropyl)-amide] | 16900 nM | 0.415 nM |
| Cc1cc(N2C[C@H](S(=O)(=O)c3ccc(-c4ccnn4C)cc3C(F)(F)F)C[C@H]2C(=O)NC2(C#N)CC2)n(C2CCC2)n1 [Example 420, (2S,4R)—N-(1-cyanocyclopropyl)-1-(1-cyclobutyl-3-methyl-1H-pyrazol-5-yl)-4-(4-(1-methyl-1H-pyrazol-5-yl)-2-(trifluoromethyl)phenylsulfonyl)pyrrolidine-2-carboxamide] | 14000 nM | 0.395 nM |
| N#CC1(NC(=O)[C@H]2CC(S(=O)(=O)c3ccccc3Cl)CN2C(=O)C(NCC(F)(F)F)c2ccc(Cl)cc2)CC1 (stereo partly drawn) [Example 421, (R)-4-(2-Chloro-benzenesulfonyl)-1-[2-(4-chloro-phenyl)-2-(2,2,2-trifluoro-ethylamino)-acetyl]-pyrrolidine-2-carboxylic acid (1-cyano-cyclopropyl)-amide] | 4950 nM | 11.5 nM |
